Data published in patent US10835533B2, “1 -((3S,4R)-4-(3-fluorophenyl)-1-(2-methoxyethyl)pyrrolidin-3-yl)-3-(4-methyl-3-(2-methylpyrimidin-5-yl)-1-phenyl-1H-pyrazol-5-yl)urea as a TrkA kinase inhibitor” (Array BioPharma Inc., priority 2014, dated 2020).
pIC50: −log10 of the molar value.

Columns and labels:
TrkA = assay: Estimated inhibition of TrkA after oral dose of 10 mg/kg in rats (FIGS. 3 and 4); details: oral dose of 10 mg/kg in rats; relative to Compound 2 and Compound 3; calculated from plasma concentration and IC50
Experimental: FIGS. 3 and 4 illustrate the estimated inhibition of TrkA for Compound 1 after an oral dose of 10 mg/kg in rats of relative to Compound 2, and for Compound 1 relative to Compound 3, respectively. The curves in FIGS. 3 and 4 were calculated using the following equation: […]
where Imin and Imax are the minimum and maximum possible inhibition of the target, respectively, IC50 is the concentration at which the target is inhibited by 50%, C is the concentration of the inhibitor, and n is the Hill slope.

[1] = Liver microsomal clearance, human; assay type: in vitro ADME; details: pH 7.4; Human liver microsomes; 1 mg/mL; 20 minutes
Experimental: The predicted hepatic clearance (CLh) value was calculated by scaling the in vitro half-life (t1/2) for stability of the compound in liver microsomes (1 mg/mL; 20 minutes) using the physical and physiological scaling factors used to predict intrinsic clearance (CLint) and hepatic clearance (CLhep) listed in Table 2 and employed in the following equations: […]
where D is the amount of cytochrome P450-related protein per mass of liver, W is the average mass of liver present per weight of animal, C is the liver microsomal concentration, and Q is the species-dependent hepatic blood flow.
A 100 mM potassium phosphate assay buffer solution (KPB) was prepared as follows. Both KH2PO4 and K2HPO4 were dissolved separately in reagent grade water resulting in final concentrations 100 mM. A 75:25 mixture v/v of K2HPO4:KH2PO4 was prepared and the pH of the solution was adjusted to 7.4 using diluted HCl or diluted NaOH solutions. Stock solutions of Compound 1, Compound 2 and Compound 3 were prepared at 10 mM (active compound) in DMSO. The stock solution was diluted immediately before use to 2.5 μM using the KPB solution to create the working standard. All test compounds were completely soluble in DMSO by visual inspection at room temperature. The NADPH-regenerating solution (NRS) was prepared on the day of analysis by diluting one volume of 17 mg/mL NADP^+ with one volume of 78 mg/mL glucose-6-phosphate (both prepared in KPB, pH 7.4) and 7.9 volumes of 20 mM MgCl2. The final concentrations of NADP^+ and glucose-6-phosphate were 1.7 mg/mL and 7.8 mg/mL, respectively. […]
All calculations were performed using BioAssay Enterprise. The mean peak area ratios were calculated by averaging the peak area ratios (n=2) of Compound 1, Compound 2, Compound 3, and the internal standard for each sample. Percent remaining was calculated by determining the ratio of the peak area ratio at each time point to the peak area ratio of the time-zero samples. The rate of loss of test compound (km) was determined by linear regression of −ln(f(t)) versus time. […] The t1/2 was determined dividing ln(2) by km. […]

[2] = biological target: T1, cloned hERG potassium channels expressed in human embryonic kidney cells (HEK293) (Homo sapiens, UniProt Q12809); assay: FASTPatch hERG Assay (Example F); assay type: cell-based; details: HEK293, QPatch HT, room temperature
T1 construct: expressed in transfected cells; host or cells: HEK293
T1 sequence (Q12809 whole entry): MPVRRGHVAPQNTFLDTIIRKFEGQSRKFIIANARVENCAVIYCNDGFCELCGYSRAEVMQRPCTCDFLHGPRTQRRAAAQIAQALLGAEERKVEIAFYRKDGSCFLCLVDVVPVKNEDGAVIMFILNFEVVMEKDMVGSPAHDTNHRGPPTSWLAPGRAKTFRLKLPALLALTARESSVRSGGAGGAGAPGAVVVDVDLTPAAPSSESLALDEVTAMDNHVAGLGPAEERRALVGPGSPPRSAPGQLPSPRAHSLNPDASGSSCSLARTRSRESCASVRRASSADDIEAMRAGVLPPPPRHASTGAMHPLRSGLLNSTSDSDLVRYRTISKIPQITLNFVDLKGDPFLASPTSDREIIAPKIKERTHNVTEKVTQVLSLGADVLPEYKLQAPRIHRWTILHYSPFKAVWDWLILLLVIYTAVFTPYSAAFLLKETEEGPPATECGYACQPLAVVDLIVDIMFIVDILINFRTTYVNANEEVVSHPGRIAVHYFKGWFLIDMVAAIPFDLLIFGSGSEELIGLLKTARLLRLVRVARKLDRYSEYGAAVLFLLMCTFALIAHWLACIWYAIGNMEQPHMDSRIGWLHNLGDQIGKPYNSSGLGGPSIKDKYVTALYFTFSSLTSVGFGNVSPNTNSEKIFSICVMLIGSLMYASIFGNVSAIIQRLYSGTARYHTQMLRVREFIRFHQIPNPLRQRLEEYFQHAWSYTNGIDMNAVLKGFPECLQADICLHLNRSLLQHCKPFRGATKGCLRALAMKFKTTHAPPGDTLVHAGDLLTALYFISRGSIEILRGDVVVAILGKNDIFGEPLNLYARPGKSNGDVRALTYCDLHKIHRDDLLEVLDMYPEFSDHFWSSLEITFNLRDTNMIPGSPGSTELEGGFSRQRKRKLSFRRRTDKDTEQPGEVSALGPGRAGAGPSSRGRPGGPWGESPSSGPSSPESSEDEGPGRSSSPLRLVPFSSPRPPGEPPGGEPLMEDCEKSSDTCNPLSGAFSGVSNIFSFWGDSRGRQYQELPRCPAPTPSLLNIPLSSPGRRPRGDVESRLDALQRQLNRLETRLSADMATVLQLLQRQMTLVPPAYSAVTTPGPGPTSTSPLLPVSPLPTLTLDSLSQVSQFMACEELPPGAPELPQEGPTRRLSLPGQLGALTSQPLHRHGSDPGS
Experimental: This assay was used to measure the effects of Compound 1, Compound 2, and Compound 3 on cloned hERG potassium channels expressed in human embryonic kidney cells (HEK293). The in vitro effects of Compound 1, Compound 2, and Compound 3 on the hERG (human ether-a-go-go-related gene) potassium channel current (a surrogate for IKr, the rapidly activating, delayed rectifier cardiac potassium current) expressed in mammalian cells were evaluated at room temperature using the QPatch HT® (Sophion Bioscience A/S, Denmark), an automatic parallel patch clamp system. The test article was evaluated at 0.3, 1, 3, 10, 30 and 100 μM with each concentration tested in three or more cells (n≥3). The duration of exposure to each test article concentration was 3 minutes. A positive control confirmed the sensitivity of the test system to hERG inhibition.

[3] = biological target: T2, GST-tagged recombinant human p38α (Homo sapiens, UniProt Q16539); assay: p38α LanthaScreen Eu Kinase Binding Assay (Example G); details: TrkA versus p38α binding
T2 construct: GST-tagged cytoplasmic domain from Invitrogen, Catalog No. PV3305; purchased Invitrogen PV3305
T2 sequence (Q16539 whole entry, the tested form may be a part): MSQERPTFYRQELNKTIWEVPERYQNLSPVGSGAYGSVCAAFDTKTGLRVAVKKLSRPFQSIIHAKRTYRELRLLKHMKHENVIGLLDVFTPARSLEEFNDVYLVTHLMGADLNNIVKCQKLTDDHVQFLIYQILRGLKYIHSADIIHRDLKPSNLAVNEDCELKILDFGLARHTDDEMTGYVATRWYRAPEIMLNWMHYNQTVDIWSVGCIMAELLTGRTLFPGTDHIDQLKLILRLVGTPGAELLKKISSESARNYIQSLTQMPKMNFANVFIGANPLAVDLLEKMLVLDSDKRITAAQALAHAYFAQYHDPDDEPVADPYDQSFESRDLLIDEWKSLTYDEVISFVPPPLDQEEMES
Experimental: The p38α binding activity of Compound 1 was determined in a p38α LanthaScreen™ Eu Kinase Binding Assay. […] Three fold serial dilutions of Compound 1 in DMSO were added to a final percentage of 2% DMSO. After 60-minute incubation at 22° C., the reaction was measured using the EnVision multimode plate reader (PerkinElmer) via TR-FRET dual wavelength detection at […]. The percent of control was calculated using a ratiometric emission factor. The IC50 value was determined by fitting a four parameter model to the percent of control data.

[4] = IV clearance, 1 mg/kg IV, mouse; assay type: in vivo; details: for in vivo/in vitro correction factor: microsomal CLh divided by IV CL; for clearance: plasma, 1 mg/kg IV
Experimental: In Table 1, the predicted human IV clearance values were calculated from compound concentration-versus-time data in plasma collected from pre-clinical species (mouse, rat, dog and monkey) following 1 mg/kg intravenous (IV) doses. Concentrations of compound in plasma were measured by LC-MS (liquid chromatography-mass spectrometry). AUCinf values (Area under the plasma concentration-time curve for a dosing interval from time 0 extrapolated to infinity) for individual Cp/t curves (concentration of the drug in plasma at any time t) were determined using linear-trapezoidal integration and first order extrapolation from terminal points of the Cp/t curves, and clearance (CL) was calculated using Dose/AUCinf.

| CLhep predicted at 1 μM [1] | fold more potent against TrkA than p38α [3] | in vivo/in vitro correction factor [4] | clearance [4] | SMILES | estimated inhibition of TrkA (TrkA) | pIC50 [2] |
| --- | --- | --- | --- | --- | --- | --- |
| 9.8 mL/min/kg | 1000 fold | – | – | COCCN1C[C@@H](NC(=O)Nc2c(C)c(-c3cnc(C)nc3)nn2-c2ccccc2)[C@H](c2cccc(F)c2)C1 [Compound 1, 1-((3S,4R)-4-(3-fluorophenyl)-1-(2-methoxyethyl)pyrrolidin-3-yl)-3-(4-methyl-3-(2-methylpyrimidin-5-yl)-1-phenyl-1H-pyrazol-5-yl)urea] | higher | 4.70 |
| 14 mL/min/kg | – | 1.36 | 42 mL/min/kg | COCCN1C[C@@H](NC(=O)Nc2c(C)c(-c3cnc(C)nc3)nn2-c2ccccc2)[C@H](c2ccc(F)c(F)c2)C1 [Compound 2, 1-((3S,4R)-4-(3,4-difluorophenyl)-1-(2-methoxyethyl)pyrrolidin-3-yl)-3-(4-methyl-3-(2-methylpyrimidin-5-yl)-1-phenyl-1H-pyrazol-5-yl)urea] | – | 5.16 |
| 10 mL/min/kg | – | 0.85 | 71 mL/min/kg | COCCN1C[C@@H](NC(=O)Nc2c(C)c(-c3cnn(C)c3)nn2-c2ccccc2)[C@H](c2ccc(F)cc2)C1 [Compound 3, 1-(1′,4-dimethyl-1-phenyl-1H,1′H-[3,4′-bipyrazol]-5-yl)-3-((3S,4R)-4-(4-fluorophenyl)-1-(2-methoxyethyl)pyrrolidin-3-yl)urea] | – | – |
